MIC data for eleven compounds are collected here from ChEMBL document CHEMBL1275606, “Novel chromosome-encoded CTX-M-78 beta-lactamase from a Kluyvera georgiana clinical isolate as a putative origin of CTX-M-25 subgroup” (2010).

≈ marks a conversion by molar mass, not a printed value.

For the first test, the system named is Kluyvera georgiana. Put plainly: Antimicrobial activity against Kluyvera georgiana 14751 expressing beta-lactamase CTX-M-78 obtained from bloodstream of patient by […] in presence of beta-lactamase inhibitor clavulanic acid. Format: functional. (A growth-free zone around the sample is the usual read-out of agar diffusion tests.)
With `CC1(C)S[C@@H]2[C@H](NC(=O)[C@H](N)c3ccccc3)C(=O)N2[C@H]1C(=O)O` [AMPICILLIN], the MIC – broadly, the smallest concentration in the dilution series that meets the test's criterion for growth inhibition – turned out to be 4 µg/mL.

The test system of another test is Escherichia coli. Put plainly: Antimicrobial activity against Escherichia coli TOP10F' by […]. Format: functional.
Compound `CO/N=C(\C(=O)N[C@@H]1C(=O)N2C(C(=O)O)=C(COC(C)=O)CS[C@H]12)c1csc(N)n1` [CEFOTAXIME] had a minimal inhibitory concentration (MIC) of at most 0.016 µg/mL.
Compound `CC(=O)OCC1=C(C(=O)O)N2C(=O)[C@@H](NC(=O)Cc3cccs3)[C@H]2SC1` [CEPHALOTHIN] showed an MIC of 2 µg/mL (≈ 5.04 µM).
On the same count and under the same terms, for `CC(C)(O/N=C(\C(=O)N[C@@H]1C(=O)N2C(C(=O)[O-])=C(C[n+]3ccccc3)CS[C@H]12)c1csc(N)n1)C(=O)O` [CEFTAZIDIME] the value was 0.125 µg/mL (≈ 0.229 µM); for `NC[C@H]1O[C@H](O[C@H]2[C@H](O)[C@@H](O[C@H]3O[C@H](CO)[C@@H](O)[C@H](N)[C@H]3O)[C@H](N)C[C@@H]2N)[C@H](O)[C@@H](O)[C@@H]1O` [KANAMYCIN], 1 µg/mL (≈ 2.06 µM); for `CO[C@@]1(NC(=O)Cc2cccs2)C(=O)N2C(C(=O)O)=C(COC(N)=O)CS[C@@H]21` [CEFOXITIN], 2 µg/mL (≈ 4.68 µM).
Regarding `CO/N=C(\C(=O)N[C@@H]1C(=O)N2C(C(=O)[O-])=C(C[N+]3(C)CCCC3)CS[C@H]12)c1csc(N)n1` [CEFEPIME], it took 0.016 µg/mL (≈ 0.0333 µM) to inhibit growth (MIC).

For a further test, the system named is Kluyvera georgiana. Put plainly: Antimicrobial activity against Kluyvera georgiana 14751 expressing beta-lactamase CTX-M-78 obtained from bloodstream of patient by […]. Format: functional.
`CC1(C)S[C@@H]2[C@H](NC(=O)[C@H](N)c3ccccc3)C(=O)N2[C@H]1C(=O)O` [AMPICILLIN] gave an MIC of 256 µg/mL (≈ 733 µM).
In turn, `CO/N=C(\C(=O)N[C@@H]1C(=O)N2C(C(=O)O)=C(COC(C)=O)CS[C@H]12)c1csc(N)n1` [CEFOTAXIME] yielded an MIC of 0.032 µg/mL (≈ 0.0703 µM).
Still for that read-out and setting: for `CCn1cc(C(=O)O)c(=O)c2ccc(C)nc21` [NALIDIXIC ACID] the value was 128 µg/mL (≈ 551 µM); for GENTAMICIN, 64 µg/mL.
The same measure, in the same setting: for `CC(=O)OCC1=C(C(=O)O)N2C(=O)[C@@H](NC(=O)Cc3cccs3)[C@H]2SC1` [CEPHALOTHIN] the value was 8 µg/mL (≈ 20.2 µM).
`CC(C)(O/N=C(\C(=O)N[C@@H]1C(=O)N2C(C(=O)[O-])=C(C[n+]3ccccc3)CS[C@H]12)c1csc(N)n1)C(=O)O` [CEFTAZIDIME] came in with an MIC of 0.063 µg/mL (≈ 0.115 µM).
Still for that read-out and setting: to `NC[C@H]1O[C@H](O[C@H]2[C@H](O)[C@@H](O[C@H]3O[C@H](CO)[C@@H](O)[C@H](N)[C@H]3O)[C@H](N)C[C@@H]2N)[C@H](O)[C@@H](O)[C@@H]1O` [KANAMYCIN] belongs 16 µg/mL (≈ 33 µM); to `CO[C@@]1(NC(=O)Cc2cccs2)C(=O)N2C(C(=O)O)=C(COC(N)=O)CS[C@@H]21` [CEFOXITIN], 1 µg/mL (≈ 2.34 µM).
`C[C@H]1[C@H](NC(=O)/C(=N\OC(C)(C)C(=O)O)c2csc(N)n2)C(=O)N1S(=O)(=O)O` [AZTREONAM] returned an MIC of at most 0.016 µg/mL.
The same measure, in the same setting: to `CN(C)[C@@H]1C(O)=C(C(N)=O)C(=O)[C@@]2(O)C(O)=C3C(=O)c4c(O)cccc4[C@@](C)(O)[C@H]3C[C@@H]12` [TETRACYCLINE] belongs at most 0.5 µg/mL.
Same read-out and setting: for `CO/N=C(\C(=O)N[C@@H]1C(=O)N2C(C(=O)[O-])=C(C[N+]3(C)CCCC3)CS[C@H]12)c1csc(N)n1` [CEFEPIME] the value was 0.032 µg/mL (≈ 0.0666 µM).

In a further test the test system is Escherichia coli. Put plainly: Antimicrobial activity against Escherichia coli TOP10F' transformant harboring beta-lactamase CTX-M-78 by […]. Format: functional.
Consider `CC1(C)S[C@@H]2[C@H](NC(=O)[C@H](N)c3ccccc3)C(=O)N2[C@H]1C(=O)O` [AMPICILLIN], for which the minimum inhibitory concentration (MIC) was 256 µg/mL (≈ 733 µM).
Still for that read-out and setting: for `CO/N=C(\C(=O)N[C@@H]1C(=O)N2C(C(=O)O)=C(COC(C)=O)CS[C@H]12)c1csc(N)n1` [CEFOTAXIME] the value was 1 µg/mL (≈ 2.2 µM).
Still for that read-out and setting: to `CCn1cc(C(=O)O)c(=O)c2ccc(C)nc21` [NALIDIXIC ACID] belongs 2 µg/mL (≈ 8.61 µM); to GENTAMICIN, under 0.5 µg/mL.
Same read-out and setting: for `CC(=O)OCC1=C(C(=O)O)N2C(=O)[C@@H](NC(=O)Cc3cccs3)[C@H]2SC1` [CEPHALOTHIN] the value was 256 µg/mL (≈ 646 µM); for `CC(C)(O/N=C(\C(=O)N[C@@H]1C(=O)N2C(C(=O)[O-])=C(C[n+]3ccccc3)CS[C@H]12)c1csc(N)n1)C(=O)O` [CEFTAZIDIME], 0.25 µg/mL (≈ 0.457 µM).
`NC[C@H]1O[C@H](O[C@H]2[C@H](O)[C@@H](O[C@H]3O[C@H](CO)[C@@H](O)[C@H](N)[C@H]3O)[C@H](N)C[C@@H]2N)[C@H](O)[C@@H](O)[C@@H]1O` [KANAMYCIN] had an MIC of 256 µg/mL (≈ 528 µM).
Same read-out and setting: to `CO[C@@]1(NC(=O)Cc2cccs2)C(=O)N2C(C(=O)O)=C(COC(N)=O)CS[C@@H]21` [CEFOXITIN] belongs 2 µg/mL (≈ 4.68 µM).
Same read-out and setting: to `C[C@H]1[C@H](NC(=O)/C(=N\OC(C)(C)C(=O)O)c2csc(N)n2)C(=O)N1S(=O)(=O)O` [AZTREONAM] belongs 0.5 µg/mL (≈ 1.15 µM); to `CN(C)[C@@H]1C(O)=C(C(N)=O)C(=O)[C@@]2(O)C(O)=C3C(=O)c4c(O)cccc4[C@@](C)(O)[C@H]3C[C@@H]12` [TETRACYCLINE], 256 µg/mL (≈ 576 µM); to `CO/N=C(\C(=O)N[C@@H]1C(=O)N2C(C(=O)[O-])=C(C[N+]3(C)CCCC3)CS[C@H]12)c1csc(N)n1` [CEFEPIME], 0.5 µg/mL (≈ 1.04 µM).
